Source: PMC12527922, “Cocaine chemogenetics blunts drug-seeking by synthetic physiology” (Nature, 2025)
Values joined by “and” are separate entries in the source; they are usually repeats but may differ in a detail not shown here. Identical values can stand only once. Like-named read-outs stand apart in the source and are kept apart here.

Legend:
[1] = target: T1, coca-GlyR (α7(L141G,G175K,Y217F)–GlyR) (Homo sapiens, UniProt P23415+P36544, G175K/L141G/Y217F); assay: Membrane potential assay, coca-GlyR in HEK293; type: cell-based
T1 construct: expressed in transfected cells; host or cells: HEK293 (ATCC CRL-1573), pcDNA3.1
T1 sequence (P36544+P23415 fused P36544:L141G/P36544:G175K/P36544:Y217F): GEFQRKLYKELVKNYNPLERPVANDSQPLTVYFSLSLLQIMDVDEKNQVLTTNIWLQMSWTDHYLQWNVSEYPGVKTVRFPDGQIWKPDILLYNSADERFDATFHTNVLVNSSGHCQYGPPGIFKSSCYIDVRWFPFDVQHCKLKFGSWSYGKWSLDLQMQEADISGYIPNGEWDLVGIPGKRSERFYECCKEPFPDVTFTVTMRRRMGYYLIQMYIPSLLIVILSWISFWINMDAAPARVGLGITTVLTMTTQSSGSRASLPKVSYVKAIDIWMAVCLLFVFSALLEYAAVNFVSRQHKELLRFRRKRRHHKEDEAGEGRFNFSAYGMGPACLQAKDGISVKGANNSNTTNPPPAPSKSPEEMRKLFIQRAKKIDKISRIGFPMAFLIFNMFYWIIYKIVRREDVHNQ

unmodified α7–5HT3 = target: T2, unmodified α7–5HT3 (UniProt P23979+P36544, M226I/T225I); assay: Membrane potential assay, unmodified α7–5HT3; type: cell-based, human α7 nAChR LBD, mouse 5HT3 IPD
T2 construct: expressed in transfected cells; host or cells: HEK293 (ATCC CRL-1573), pcDNA3.1
T2 sequence (P36544+P23979 fused P36544:T225I/P36544:M226I): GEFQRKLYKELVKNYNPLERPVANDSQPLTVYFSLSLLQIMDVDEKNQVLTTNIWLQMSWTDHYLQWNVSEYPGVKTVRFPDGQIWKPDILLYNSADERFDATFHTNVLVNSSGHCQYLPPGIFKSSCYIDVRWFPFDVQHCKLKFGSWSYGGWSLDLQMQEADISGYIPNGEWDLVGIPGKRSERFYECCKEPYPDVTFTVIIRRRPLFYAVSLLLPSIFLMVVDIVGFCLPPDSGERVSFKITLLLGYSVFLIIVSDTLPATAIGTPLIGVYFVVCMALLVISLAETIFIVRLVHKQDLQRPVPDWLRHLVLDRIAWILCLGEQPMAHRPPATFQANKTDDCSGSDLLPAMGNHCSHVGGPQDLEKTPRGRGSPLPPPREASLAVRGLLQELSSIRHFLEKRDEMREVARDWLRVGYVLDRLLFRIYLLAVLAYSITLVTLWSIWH

unmodified α7–GlyR = target: T3, unmodified α7–GlyR (Homo sapiens, UniProt P23415+P36544); assay: Membrane potential assay, unmodified α7–GlyR; type: cell-based; details: sheet 1d
T3 construct: expressed in transfected cells; host or cells: HEK293 (ATCC CRL-1573), pcDNA3.1
T3 sequence (P36544+P23415 fused): as the sequence (P36544+P23415 fused P36544:L141G/P36544:G175K/P36544:Y217F) above, with G119L, K153G, F195Y counted along it

[2] = system: α7–5HT3 mutant chimeric channels; assay: cell-based; type: cell-based, human α7 nAChR LBD, mouse 5HT3 IPD; details: for EC50: sheet 1e
coca-5HT3 = assay: Whole-cell voltage-clamp in HEK293 cells, coca-5HT3; type: cell-based, human α7 nAChR LBD, mouse 5HT3 IPD
Method: Channel mutants and agonists were further characterized in whole-cell voltage-clamp experiments performed on HEK293 cells. At passage 44–48, cells were plated at low density (1 × 10^3 per cm^2) on poly-D-lysine-coated glass coverslips, then transfected in 10 cm^2 wells using the Fugene 6 transfection reagent (Roche) with DNA plasmids containing both an ion channel cDNA (pcDNA3.1, 2 µg per well) and cDNA for GFP (pCMV, 0.1 μg per well), followed by replacement of the medium after 3 h. Recordings were made 24–72 h after transfection.
Electrophysiological recordings were performed in whole-cell voltage-clamp mode, on an inverted fluorescence microscope (Olympus IX-51) using pClamp software and a […] amplifier (Molecular Devices). Electrophysiological data was filtered at 4 kHz, digitized at 10 kHz using a Digidata 1400 interface (Molecular Devices), recorded on a PC (Dell) and analysed using custom MATLAB software (MathWorks). Solutions were delivered from a gravity fed perfusion system through a capillary tube placed approximately […] from the recorded cell using an eight-way manifold pinch valve system (Nanion), which was controlled from the acquisition software. This allowed for up to seven concentrations of agonist to be tested. […]

DAT = details: endogenous target; cited from earlier work
[3] = screen of chimeric α7–5HT3 and α7–GlyR single LBD mutants (Fig. 1d)

COC(=O)[C@H]1[C@@H](OC(=O)c2ccccc2)C[C@@H]2CC[C@H]1N2C [cocaine]
EC50 [1]: 1200 ± 100 nM
EC50 at a75HT3 unmodified, AVG (unmodified α7–5HT3; sheet 1e, AVG): 30000 nM
EC50 at a75HT3 unmodified (unmodified α7–5HT3; sheet 1e, single determinations): 30000 nM
EC50 at α7-5HT3, Avg (unmodified α7–5HT3; sheet 1d, Avg): 30000 nM
EC50 at α7-5HT3 (unmodified α7–5HT3; sheet 1d, single determinations): 30000 nM
EC50 at α7-GlyR, Avg (unmodified α7–GlyR; Avg): 30000 nM
EC50 at α7-GlyR (unmodified α7–GlyR; single determinations): 30000 nM
agonism at Leu141Gly or Leu141Ala mutant channels [2, 3]: marked induction of cocaine agonism
agonist activity at Trp77Phe and Leu131Asn mutant channels [2, 3]: some cocaine agonist activity
EC50 ([2]; AVG, read-out: EC50 at a75HT3 L141G G175K Y115F, AVG): 4780 nM
EC50 ([2]; AVG, read-out: EC50 at a75HT3 L141G G175K Y210F, AVG): 2270 nM
EC50 ([2]; AVG, read-out: EC50 at a75HT3 L141G G175K Y217F, AVG): 715 nM
EC50 ([2]; AVG, read-out: EC50 at a75HT3 L141G G175K, AVG): 315 nM
EC50 ([2]; AVG, read-out: EC50 at a75HT3 L141G, AVG): 2350 nM
EC50 ([2]; single determinations, read-out: EC50 at a75HT3 L141G): 2350 nM
EC50 ([2]; single determinations, read-out: EC50 at a75HT3 L141G G175K): 390 nM and 240 nM
EC50 ([2]; single determinations, read-out: EC50 at a75HT3 L141G G175K Y217F): 800 nM and 630 nM
currents from coca-5HT3 (coca-5HT3): robust cocaine-activated currents
range of cocaine affinities for DAT (DAT): 0.23 to 2.0 µM
